According to BindingDB's records for doi:10.1016/j.bmcl.2017.11.013 (Csir-Indian Institute of Integrative Medicine, 2017):
pEC50: −log10 of the molar value.

Columns and labels:
[1] = Inhibition of human CYP1B1 expressed in MDA-MB-468 cells assessed as potentiation of cisplatin-induced cytotoxicity by measuring cisplatin EC50 at 20 uM (Rvb = 6.70+/- 0.7 uM)
[2] = Inhibition of human CYP1A1 transfected in HEK293 cells assessed as protection against CYP1A1 mediated B[a]P toxicity by measuring B[a]P EC50 at 20 uM by MTT assay (Rvb =1.2+/- 0.3 uM)
[3] = Inhibition of human CYP1B1 expressed in MDA-MB-468 cells assessed as potentiation of cisplatin-induced cytotoxicity by measuring cisplatin EC50 at 6.6 uM (Rvb = 6.70+/- 0.7 uM)

SMILES | pEC50 [1] | pEC50 [2] | pEC50 [3]
O=c1cc(-c2ccccc2)oc2c1ccc1ccccc12 | 5.29 | – | –
CC(C)=CCc1cc(C2CC(=O)c3ccc(O)c(CC=C(C)C)c3O2)ccc1O (stereo not given) | 5.28 | 5.64 | –
O=c1c(O)c(-c2ccc(O)c(O)c2)oc2cc(O)cc(O)c12 [2-(3,4-dihydroxyphenyl)-3,5,7-trihydroxy-chromone;hydrate] | – | 5.06 | 5.96
